# Results from US20230365592A1 (Agios Pharmaceuticals, Inc., priority 2022, published 2023).
# Biological target: T1, human PAH with the R408W mutation (Homo sapiens, UniProt P00439, R408W)
# T1 construct: expressed in transfected cells
# T1 sequence (P00439 1-452 R408W): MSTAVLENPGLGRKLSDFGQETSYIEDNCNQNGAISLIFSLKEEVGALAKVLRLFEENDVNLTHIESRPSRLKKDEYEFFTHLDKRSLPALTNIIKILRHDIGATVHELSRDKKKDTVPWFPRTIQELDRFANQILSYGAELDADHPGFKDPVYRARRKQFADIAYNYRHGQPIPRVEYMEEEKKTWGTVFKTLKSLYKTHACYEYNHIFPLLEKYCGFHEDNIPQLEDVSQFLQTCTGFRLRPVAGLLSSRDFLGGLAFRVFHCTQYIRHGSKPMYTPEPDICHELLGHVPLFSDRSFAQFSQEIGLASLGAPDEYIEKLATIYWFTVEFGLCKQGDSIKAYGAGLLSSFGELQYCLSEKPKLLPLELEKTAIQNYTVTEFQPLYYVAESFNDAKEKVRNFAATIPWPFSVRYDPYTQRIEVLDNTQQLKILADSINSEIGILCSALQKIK
# Test: Cell Based Phenylalanine Flux Assay;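 also: after compound treatment, cells received sepiapterin plus isotope-labelled Phenylalanine for 4 hours, then labelled Tyrosine in the medium was quantified, 10-point 2-fold dilution series run in duplicate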
# Conditions: A375 cells expressing human R408W PAH; 24 hrs compound incubation; 13C-Tyrosine by LC-MS; average where tested multiple times; read-out: AC50
row,Structure (SMILES),AC50 [µM]
1,"Cc1cccn2nc([C@@H]3c4nc[nH]c4CCN3C(=O)c3nnc(-c4ccn(C(F)F)n4)o3)cc12 [Example 822, (S)-(5-(1-(difluoromethyl)-1H-pyrazol-3-yl)-1,3,4-oxadiazol-2-yl)(4-(4-methylpyrazolo[1,5-a]pyridin-2-yl)-6,7-dihydro-1H-imidazo[4,5-c]pyridin-5(4H)-yl)methanone]",< 0.5
2,"Cc1cccn2nc([C@H]3c4nc[nH]c4CCN3C(=O)c3nnc(-c4ccn(C(F)F)n4)o3)cc12 [Example 823, (R)-(5-(1-(difluoromethyl)-1H-pyrazol-3-yl)-1,3,4-oxadiazol-2-yl)(4-(4-methylpyrazolo[1,5-a]pyridin-2-yl)-6,7-dihydro-1H-imidazo[4,5-c]pyridin-5(4H)-yl)methanone]",1 to 5
3,"O=C(c1nnc(-c2ccn(C(F)F)n2)o1)N1CCc2[nH]cnc2[C@@H]1c1cc2c(F)cccn2n1 [Example 824, (R)-(5-(1-(difluoromethyl)-1H-pyrazol-3-yl)-1,3,4-oxadiazol-2-yl)(4-(4-fluoropyrazolo[1,5-a]pyridin-2-yl)-6,7-dihydro-1H-imidazo[4,5-c]pyridin-5(4H)-yl)methanone]",> 5
4,"O=C(c1nnc(-c2ccn(C(F)F)n2)o1)N1CCc2[nH]cnc2[C@H]1c1cc2c(F)cccn2n1 [Example 825, (S)-(5-(1-(difluoromethyl)-1H-pyrazol-3-yl)-1,3,4-oxadiazol-2-yl)(4-(4-fluoropyrazolo[1,5-a]pyridin-2-yl)-6,7-dihydro-1H-imidazo[4,5-c]pyridin-5(4H)-yl)methanone]",< 0.5
5,"Cn1cc(-c2nnc(C(=O)N3CCc4[nH]cnc4[C@H]3c3cc4c(C(F)(F)F)cccn4n3)o2)cn1 [Example 828, (S)-(5-(1-methyl-1H-pyrazol-4-yl)-1,3,4-oxadiazol-2-yl)(4-(4-(trifluoromethyl)pyrazolo[1,5-a]pyridin-2-yl)-6,7-dihydro-1H-imidazo[4,5-c]pyridin-5(4H)-yl)methanone]",< 0.5
6,"Cn1cc(-c2nnc(C(=O)N3CCc4[nH]cnc4[C@@H]3c3cc4c(C(F)(F)F)cccn4n3)o2)cn1 [Example 829, (R)-(5-(1-methyl-1H-pyrazol-4-yl)-1,3,4-oxadiazol-2-yl)(4-(4-(trifluoromethyl)pyrazolo[1,5-a]pyridin-2-yl)-6,7-dihydro-1H-imidazo[4,5-c]pyridin-5(4H)-yl)methanone]",> 5
7,"O=C(c1nnc(-c2ccncc2)o1)N1CCc2[nH]cnc2[C@H]1c1cc2c(F)cccn2n1 [Example 830, (S)-(4-(4-fluoropyrazolo[1,5-a]pyridin-2-yl)-6,7-dihydro-1H-imidazo[4,5-c]pyridin-5(4H)-yl)(5-(pyridin-4-yl)-1,3,4-oxadiazol-2-yl)methanone]",< 0.5
8,"O=C(c1nnc(-c2ccncc2)o1)N1CCc2[nH]cnc2[C@@H]1c1cc2c(F)cccn2n1 [Example 831, (R)-(4-(4-fluoropyrazolo[1,5-a]pyridin-2-yl)-6,7-dihydro-1H-imidazo[4,5-c]pyridin-5(4H)-yl)(5-(pyridin-4-yl)-1,3,4-oxadiazol-2-yl)methanone]",1 to 5
9,"O=C(c1nnc(-c2cnn(C3CCC3)c2)o1)N1CCc2[nH]cnc2[C@H]1c1cc2c(F)cccn2n1 [Example 832, (S)-(5-(1-cyclobutyl-1H-pyrazol-4-yl)-1,3,4-oxadiazol-2-yl)(4-(4-fluoropyrazolo[1,5-a]pyridin-2-yl)-6,7-dihydro-1H-imidazo[4,5-c]pyridin-5(4H)-yl)methanone]",< 0.5
10,"O=C(c1nnc(-c2cnn(S(=O)(=O)C3CC3)c2)o1)N1CCc2[nH]cnc2[C@H]1c1cc2c(F)cccn2n1 [Example 834, (S)-(5-(1-(cyclopropylsulfonyl)-1H-pyrazol-4-yl)-1,3,4-oxadiazol-2-yl)(4-(4-fluoropyrazolo[1,5-a]pyridin-2-yl)-6,7-dihydro-1H-imidazo[4,5-c]pyridin-5(4H)-yl)methanone]",0.5 to 1
11,"O=C(c1nnc(-c2cnn(S(=O)(=O)C3CC3)c2)o1)N1CCc2[nH]cnc2[C@@H]1c1cc2c(F)cccn2n1 [Example 835, (R)-(5-(1-(cyclopropylsulfonyl)-1H-pyrazol-4-yl)-1,3,4-oxadiazol-2-yl)(4-(4-fluoropyrazolo[1,5-a]pyridin-2-yl)-6,7-dihydro-1H-imidazo[4,5-c]pyridin-5(4H)-yl)methanone]",> 5
12,"Cc1cccn2nc([C@@H]3c4nc[nH]c4CCN3C(=O)c3ncnn3C)cc12 [Example 838, (S)-(1-methyl-1H-1,2,4-triazol-5-yl)(4-(4-methylpyrazolo[1,5-a]pyridin-2-yl)-6,7-dihydro-1H-imidazo[4,5-c]pyridin-5(4H)-yl)methanone]",< 0.5
13,"Cn1ncnc1C(=O)N1CCc2[nH]cnc2[C@H]1c1cc2c(F)cccn2n1 [Example 840, (S)-(4-(4-fluoropyrazolo[1,5-a]pyridin-2-yl)-6,7-dihydro-1H-imidazo[4,5-c]pyridin-5(4H)-yl)(1-methyl-1H-1,2,4-triazol-5-yl)methanone]",0.5 to 1
14,"Cn1ncnc1C(=O)N1CCc2[nH]cnc2[C@@H]1c1cc2c(F)cccn2n1 [Example 841, (R)-(4-(4-fluoropyrazolo[1,5-a]pyridin-2-yl)-6,7-dihydro-1H-imidazo[4,5-c]pyridin-5(4H)-yl)(1-methyl-1H-1,2,4-triazol-5-yl)methanone]",1 to 5
15,"O=C(c1ccnn1C(F)(F)F)N1CCc2[nH]cnc2[C@H]1c1cc2c(F)cccn2n1 [Example 842, (S)-(4-(4-fluoropyrazolo[1,5-a]pyridin-2-yl)-6,7-dihydro-1H-imidazo[4,5-c]pyridin-5(4H)-yl)(1-(trifluoromethyl)-1H-pyrazol-5-yl)methanone]",< 0.5
16,"O=C(c1ccnn1C(F)(F)F)N1CCc2[nH]cnc2[C@@H]1c1cc2c(F)cccn2n1 [Example 843, (R)-(4-(4-fluoropyrazolo[1,5-a]pyridin-2-yl)-6,7-dihydro-1H-imidazo[4,5-c]pyridin-5(4H)-yl)(1-(trifluoromethyl)-1H-pyrazol-5-yl)methanone]",1 to 5
17,"Cc1nn(C)cc1-c1nnc(C(=O)N2CCc3[nH]cnc3[C@H]2c2cc3c(C)cccn3n2)o1 [Example 844, (S)-(5-(1,3-dimethyl-1H-pyrazol-4-yl)-1,3,4-oxadiazol-2-yl)(4-(4-methylpyrazolo[1,5-a]pyridin-2-yl)-6,7-dihydro-1H-imidazo[4,5-c]pyridin-5(4H)-yl)methanone]",< 0.5
18,"Cc1nn(C)cc1-c1nnc(C(=O)N2CCc3[nH]cnc3[C@@H]2c2cc3c(C)cccn3n2)o1 [Example 845, (R)-(5-(1,3-dimethyl-1H-pyrazol-4-yl)-1,3,4-oxadiazol-2-yl)(4-(4-methylpyrazolo[1,5-a]pyridin-2-yl)-6,7-dihydro-1H-imidazo[4,5-c]pyridin-5(4H)-yl)methanone]",> 5
19,"Cc1nn(C)cc1-c1nnc(C(=O)N2CCc3[nH]cnc3[C@H]2c2cc3c(F)cccn3n2)o1 [Example 846, (S)-(5-(1,3-dimethyl-1H-pyrazol-4-yl)-1,3,4-oxadiazol-2-yl)(4-(4-fluoropyrazolo[1,5-a]pyridin-2-yl)-6,7-dihydro-1H-imidazo[4,5-c]pyridin-5(4H)-yl)methanone]",< 0.5
20,"Cc1nn(C)cc1-c1nnc(C(=O)N2CCc3[nH]cnc3[C@@H]2c2cc3c(F)cccn3n2)o1 [Example 847, (R)-(5-(1,3-dimethyl-1H-pyrazol-4-yl)-1,3,4-oxadiazol-2-yl)(4-(4-fluoropyrazolo[1,5-a]pyridin-2-yl)-6,7-dihydro-1H-imidazo[4,5-c]pyridin-5(4H)-yl)methanone]",> 5
